From patent US20090226393A1 (NITTO DENKO CORPORATION, priority 2008, published 2009)

Assays:
[1] = Biodistribution in different organs (drug accumulation study); settings: 48 hours post administration
Experimental: Plasma, tumor and samples of the major organ were collected at intervals out to 340 hours. […] Pharmacokinetic parameters were estimated using WinNonlin software using a non-compartment model.
For each drug, groups of 6 mice were anesthetized at various time points and 0.3 ml of blood, obtained by cardiac puncture, was collected into heparinized tubes. Thereafter, mice were sacrificed before recovering from anesthesia and the following tissues were harvested and frozen from each animal: each of the 4 tumors, lung, liver, spleen, both kidneys, skeletal muscle and heart. […] For each drug a total 72 mice were required (6 mice/time point, 12 time points).

[2] = mouse, in vivo
[3] = female, nu/nu, mouse, in vivo, iv, 40 mg/kg
[4] = system: B16 melanoma
[5] = system: NCI-H460 non-small cell lung cancer xenograft; settings: 550 mg/kg paclitaxel equivalent, IV, q7dx2, compared to Abraxane
Text: Dosage amounts may be adjusted based on the maximum tolerated dose (MTD) of the pharmaceutical composition.

Compound	amount retained in kidney [1]	amount retained in liver [1]	amount retained in lung [1]	amount retained in spleen [1]	detected in the feces [2]	T1/2 Terminal [3] [h]	tumor volume compared to Abraxane [4]	% TGD (tumor growth delay) [5] [%]
CC(=O)O[C@H]1C(=O)[C@@]2(C)[C@H]([C@H](OC(=O)c3ccccc3)[C@]3(O)C[C@H](OC(=O)[C@H](O)[C@@H](NC(=O)c4ccccc4)c4ccccc4)C(C)=C1C3(C)C)[C@]1(OC(C)=O)CO[C@@H]1C[C@@H]2O [PTX, Paclitaxel]	less than 2 μg/g	less than 2 μg/g	less than 2 μg/g	less than 2 μg/g	approximately 72%	51		
poly-(gamma-L-glutamyl glutamine)-paclitaxel [PGGA70K-PTX35]							significantly reduced tumor volume	136
